Experimental findings from PubChem BioAssay AID652001 (The Scripps Research Institute Molecular Screening Center, 2013) are described below.

SMILES strings stand for the structures.

The target of one experiment is LYPLA2. Description: LYPLA2 enzyme kinetics with inhibitors – biochemical, substrate-based fluorescence, Ki, Km, Vmax, late-stage follow-up (AID 652001). Conditions: recombinant LYPLA2, resorufin acetate hydrolysis fluorescence, Ki from Cheng-Prusoff.
Experiment [1] deals with Acyl-protein thioesterase 2 (Homo sapiens) (UniProt O95372). The description is as above. As to conditions: recombinant LYPLA2, resorufin acetate hydrolysis fluorescence.
Sequence of Acyl-protein thioesterase 2 (Homo sapiens) (O95372 whole entry, looked up): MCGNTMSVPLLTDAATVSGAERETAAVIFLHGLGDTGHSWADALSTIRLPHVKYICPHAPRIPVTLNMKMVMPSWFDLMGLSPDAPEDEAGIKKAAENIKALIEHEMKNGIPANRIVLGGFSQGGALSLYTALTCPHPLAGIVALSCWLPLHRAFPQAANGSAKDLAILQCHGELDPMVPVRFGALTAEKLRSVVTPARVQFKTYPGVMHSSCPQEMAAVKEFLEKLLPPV

As to `COc1ccc(N2CCN(C(=O)c3cc4c(s3)-c3ccccc3S(=O)(=O)C4)CC2)cc1`, the inhibition constant Ki at LYPLA2 was found to be 230 nM. For the same compound, the concentration for half-maximal inhibition (IC50) in experiment [1] stood at 510 nM.
